The values below come from paper PMC2964152 (Journal of medicinal chemistry, 2010).

Structures can show the parent of a compound that is named as a salt.

The subject of data set [1] is three melanoma cell lines and four human prostate cancer cell lines. The data set is described as follows: In vitro growth inhibition, average of all seven cell lines. The data set is classed as cell-based. The following applies: for IC50: read-out: average IC50, average of all seven cell lines, as given in the text.
The nature of data set [2]: Aqueous solubility, miniaturized shake-flask method with LC-MS/MS. The format is physicochemical.
Data set [3] is described as follows: Body weight during the in vivo efficacy study. The following applies: any of the treatment groups, during the experiment.
A further data set deals with MDA-MB-435. The data set is described as follows: In vitro growth inhibition, sensitive parent melanoma cell line. Particulars: read-out: IC50 ± SEM MDA-MB-435, n=3. The format is cell-based, human.
For the next data set, the system named is Bovine brain tubulin. The data set is described as follows: In vitro microtubule polymerization assay. The data set is classed as biochemical. The following applies: 10 μM compound, absorbance at 340 nm, 15 min, 37°C.

What is called IC50 is the point on the concentration scale where inhibition reaches its midpoint. For the compound `O=S(=O)(c1ccccc1)n1ccnc1-c1ccccc1` [3a, 2-Phenyl-1-(phenylsulfonyl)-1H-imidazole], the IC50 in data set [1] is above 10000 nM. On the same count and under the same terms, then `COc1ccc(C(=O)c2c[nH]c(-c3ccccc3)n2)cc1` [5ab, (4-Methoxyphenyl)(2-phenyl-1 H-imidazol-4-yl)methanone], with above 10000 nM. For `COc1cc(C(=O)c2c[nH]c(-c3ccc(C(F)(F)F)cc3)n2)cc(OC)c1OC` [5la, (2-(4-(Trifluoromethyl)phenyl)-1H-imidazol-4-yl)(3,4,5-trimethoxyphenyl)methanone], the “fold decrease of activity compared with compound 5da” value in data set [1] (from average IC50 values) is 12 fold. Also, the IC50 in data set [1] turned out to be 193 nM. Regarding `COc1cc(C(=O)c2c[nH]c(-c3ccc(N(C)C)cc3)n2)cc(OC)c1OC` [5ga, (2-(4-(Dimethylamino)phenyl)-1H-imidazol-4-yl)(3,4,5-trimethoxyphenyl)methanone], the “aqueous solubility, times greater than SMART-1” value in data set [2] (buffer pH7.0) is “about 50 times”; in data set [2] (water) it was around 10 times. In addition, the IC50 in data set [1] is 131 nM.

Take “(4-Fluorophenyl)(2-(2-(trifluoromethyl)phenyl)-1H-imidazol-4-yl)methanone [5ib]”: in data set [1], the IC50 was above 10000 nM. Same read-out and setting: then “(4-Fluorophenyl)(1-(phenylsulfonyl)-2-(p-tolyl)-1H-imidazol-4-yl) methanone [4db]”, with 111 nM; and `COc1ccc(C(=O)c2c[nH]c(-c3ccccc3)n2)cc1OC` [5ae, (3,4-Dimethoxyphenyl)(2-phenyl-1H-imidazol-4-yl)methanone], with above 10000 nM; and `Cc1ccc(-c2nc(C(=O)c3ccc(F)cc3)c[nH]2)cc1` [5db-HCl, (4-Fluorophenyl)(2-(p-tolyl)-1H-imidazol-4-yl)methanone HCl salt], with 172 nM. Still for that read-out and setting: the figure for `Cc1ccc(C(=O)c2c[nH]c(-c3ccccc3)n2)cc1` [5ah, (2-Phenyl-1H-imidazol-4-yl)(p-tolyl)methanone] is above 10000 nM; for `COc1cccc(C(=O)c2c[nH]c(-c3ccccc3)n2)c1` [5ac, (3-Methoxyphenyl)(2-phenyl-1H-imidazol-4-yl)methanone] it is above 10000 nM; for `COc1cc(C(=O)c2c[nH]c(-c3cc(OC)c(OC)c(OC)c3)n2)cc(OC)c1OC` [5ea, (3,4,5-Trimethoxyphenyl)(2-(3,4,5-trimethoxyphenyl)-1H-imidazol-4-yl)methanone] it is above 10000 nM. On the same count and under the same terms, then `COc1cc(-c2nc(C(=O)c3ccc(F)cc3)c[nH]2)cc(OC)c1OC` [5eb, (4-Fluorophenyl)(2-(3,4,5-trimethoxyphenyl)-1H-imidazol-4-yl)methanone], with above 10000 nM. For `COc1ccc(-c2nc(C(=O)c3ccc(F)cc3)c[nH]2)cc1` [5cb, (4-Fluorophenyl)(2-(4-methoxyphenyl)-1H-imidazol-4-yl)methanone], the weight loss result in data set [3] is on record as “No significant weight loss”. Take “(2-(4-(Dimethylamino)phenyl)-1-(phenylsulfonyl)-1H-imidazol-4-yl)(4-fluorophenyl)methanone [4gb]”: the IC50 in data set [1] was found to be 87 nM. The same measure, in the same setting: then `O=C(c1cccc(F)c1)c1c[nH]c(-c2ccccc2)n1` [5ag, (3-Fluorophenyl)(2-phenyl-1H-imidazol-4-yl)methanone], with above 10000 nM.

`O=[N+]([O-])c1ccc(-c2nccn2S(=O)(=O)c2ccccc2)cc1` [3x, 2-(4-Nitrophenyl)-1-(phenylsulfonyl)-1H -imidazole]: the IC50 in data set [1] is above 10000 nM.

With `COc1ccc(-c2nc(C(=O)c3cc(OC)c(OC)c(OC)c3)c[nH]2)cc1OC` [5ha, (2-(3,4-Dimethoxyphenyl)-1H-imidazol-4-yl)(3,4,5-trimethoxyphenyl)methanone], the IC50 in data set [1] came to 330 nM. The same measure, in the same setting: the figure for “(2-(4-(Benzyloxy)phenyl)-1-(phenylsulfonyl)-1 H-imidazol-4-yl)(4-fluorophenyl) methanone [4jb]” is 61 nM. For the compound “(4-Fluorophenyl)(2-(4-methoxyphenyl)-1-(phenylsulfonyl)-1H-imidazol-4-yl) methanone [4cb]”, the values for the IC50 (in the data set with MDA-MB-435; in data set [1]) were 38 ± 3 nM and 43 nM, respectively. Take `O=C(c1ccc(F)cc1)c1c[nH]c(-c2ccc(OCc3ccccc3)cc2)n1` [5jb, (2-(4-(Benzyloxy)phenyl)-1H-imidazol-4-yl)(4-fluorophenyl)methanone]: in data set [1] (from average IC50 values), the “fold increase in activity compared with 5kb” value came out at 440 fold. Also, the IC50 in data set [1] was 75 nM.

Take `O=S(=O)(c1ccccc1)n1ccnc1-c1ccc(OCc2ccccc2)cc1` [3j, 2-(4-(Benzyloxy)phenyl)-1-(phenylsulfonyl)-1H-imidazole]: the IC50 in data set [1] was above 10000 nM.

Turning to `COc1cc(C(=O)n2ccnc2-c2ccccc2)cc(OC)c1OC` [5aaa, (2-Phenyl-1H-imidazol-1-yl)(3,4,5-trimethoxyphenyl) methanone], in data set [1], the IC50 is above 10000 nM. The same measure, in the same setting: the figure for “(2-(4-(Dimethylamino)phenyl)-1-(phenylsulfonyl)-1H-imidazol-4-yl)(3, 4, 5-trimethoxyphenyl) methanone [4ga]” is 285 nM.

`Cc1cccc(C(=O)c2c[nH]c(-c3ccccc3)n2)c1` [5ai, (2-Phenyl-1H-imidazol-4-yl)(m-tolyl)methanone]: the IC50 in data set [1] was above 10000 nM. The same measure, in the same setting: then “(2-(3, 4-Dimethoxyphenyl)-1-(phenylsulfonyl)-1H-imidazol-4-yl)(3,4,5-trimethoxyphenyl)methanone [4ha]”, with 268 nM. “(2-(4-Chlorophenyl)-1-(phenylsulfonyl)-1H-imidazol-4-yl)(4-fluorophenyl)methanone [4fb]”: the IC50 with MDA-MB-435 came to 50 ± 6 nM.

`CN(C)/N=N/c1[nH]cnc1C(N)=O` [DTIC, dacarbazine, reference compound]: the weight loss result in data set [3] is reported as “No significant weight loss”. Take `COc1cc(C(=O)c2c[nH]c(-c3ccc(OCc4ccccc4)cc3)n2)cc(OC)c1OC` [5ja, (2-(4-(Benzyloxy)phenyl)-1H-imidazol-4-yl)(3,4,5-trimethoxyphenyl)methanone]: in data set [1], the IC50 stood at 7300 nM. With `COc1cc(C(=O)c2c[nH]c(-c3ccc(C)cc3)n2)cc(OC)c1OC` [5da, (2-(p-Tolyl)-1H-imidazol-4-yl)(3,4,5-trimethoxyphenyl)methanone], the “inhibition of tubulin polymerization” value in the data set on Bovine brain tubulin is reported as “completely inhibited”. On to `COc1ccc(C(=O)n2ccnc2-c2ccccc2)cc1` [5aba, (4-Methoxyphenyl)(2-phenyl-1H-imidazol-1-yl) methanone], for which the IC50 in data set [1] was above 10000 nM.
